Test results: PMC12519263, “Antifibrotic Efficacy of a Nintedanib–Peptide Conjugate and Diagnostic Potential of a Fluorescent Companion Probe Targeting αVβ6 Integrin in Idiopathic Pulmonary Fibrosis” (ACS Pharmacology & Translational Science, 2025)
One block for each compound: values may come before it. Numbered stars: 1 amine (or outer) side, 2 acyl side, 3 side chain; on linkers, the order of the positions; unused ones are H or OH. Square brackets hold non-standard residues; d marks the D form. Peptide text beside a SMILES is read from it. X1 = [N-]=[N+]=NCCCCN1C[C@@H](N[*:1])C[C@H]1C(=O)[*:2]

Tests used:
[1] = system: p-ERK1/2 in hIPF fibroblasts; assay: Western blot of ERK1/2 phosphorylation; assay type: cell-based, human; details: 24 h, 5 μM, Western blot densitometry normalized to vinculin, vs untreated, three independent experiments
Text: (§1) The effect of treatment with compound 1 on patient-derived hIPF fibroblasts was next investigated by evaluating the inhibition of both TGF-β1 production and ERK1/2 phosphorylation. It is important to note that TGF-β1 expression is usually evaluated in cultured cells in secreted form in their culture medium (soluble and active form of TGF-β1 (13 kDa)). We reasoned that the evaluation of the intracellular form of full-length TGF-β1 (44 kDa) in hIPF fibroblasts might directly reflect the potency of the conjugated compound to inhibit TGF-β1 production. Evaluation of these fibrosis-related hallmarks would have been indicative of the downstream effect of our conjugate on IPF-related human cell signaling promoted by either the integrin ligand, the nintedanib component, or both. […]
(§2) The protein content in each sample was quantified using the Bradford colorimetric assay, and 56 μg of total proteins was prepared for SDS-PAGE analysis using Bolt LDS Sample Buffer 4× (Novex, Life Technologies) with 10% Bolt Sample Reducing Agent 10× (Novex, Life Technologies). […] Each band detected was quantified by densitometric analysis, using ImageJ software, and normalized against vinculin expression as the housekeeper protein.

human recombinant VEGFR = system: human recombinant VEGFR; design: method as in previously reported, see ref (number not given); details: ref previously reported, see ref (number not given); read-out: IC50, TKI activity against human recombinant VEGFR; cited from earlier work
[2] = system: BLM-induced lung fibrosis; assay: Antifibrotic therapy in BLM-induced lung fibrosis mouse model (Study #2; μCT, histology); assay type: in vivo, C57Bl/6 mice; details: day 14 to 21, BLM mice; for severe fibrotic lesions (Ashcroft score, histology): left lobe, Picrosirius red, day 21, vs BLM
Text: After triple BLM instillation, all mice underwent μCT imaging on days 14 and 21, indicating the beginning and the end of the therapeutic window. , On day 14, the BLM-treated mice were divided into 5 groups, namely, Vehicle, NINT (23), NINT (94), PepNIN 1 (23), and Ligand 11 (23). […] The two remaining groups received the NINT (23) (nintedanib at 23 μmol/kg) and ligand 11 (23) (cyclopeptide ligand 11 at 23 μmol/kg) alone to investigate the therapeutic effect of each single component at this reduced dosage.
Bleomycin hydrochloride (Baxter) dissolved in 50 μL of saline was administered via a triple oropharyngeal aspiration (OA) under 2.5% isoflurane anesthesia to induce pulmonary fibrosis, as previously described. , The negative control group received a triple OA with saline (Saline).
In Study #2, BLM-treated mice (29 of 35 mice) on day 14 were divided into 5 different groups (reported in Table S2, Supporting Information) and were daily treated with nintedanib (94 or 23 μmol/kg), PepNIN 1 (23 μmol/kg), integrin ligand 11 (23 μmol/kg), or vehicle (1% Tween 80 in ultrapure water) by oral gavage from day 14 to day 21. All mice were longitudinally monitored by μCT imaging on days 14 and 21, and subsequently they were sacrificed for the histological assessment of lung fibrosis.
Mice thoraxes were imaged using a Quantum GX Micro-CT scanner (Revvity, Inc. Waltham, MA) after anesthetic induction and maintenance with 2% isoflurane. Images were taken in free-breathing mice using the following parameters: an X-ray tube current of 88 A, an X-ray tube voltage of 90 kV, and a total angle of 360° over a scan period of 4 min. The detector was 736 × 588 pixels with a size of 0.2 mm. The reconstruction method automatically trimmed the pixels to produce a projection size of 512 × 512 pixels. Binning was not employed. Each animal was placed supine on the scanner bed, with its chest adjusted to fit inside the field of view. To detect the breathing pattern, pictures were captured in “high-speed” mode, allowing the recording of the gating signal through a region of interest (ROI) positioned over the animals’ diaphragm. Projections were collected in “list mode” (labeled as “00000”, “00001”, ···, “14′687”) during a single continuous gantry rotation. […] The acquisition duration was 4 min, and around 900 projections (both P01 and P02) were automatically selected and used for the reconstruction of the two data sets, with the option to change the thresholds to select the most suited projections. However, our highly controlled anesthetic protocol , enabled us to maintain constant breathing rates (100–120 bpm). Two stacks of 512 cross-sectional images were automatically reconstructed into two 3D data sets corresponding to the inspiratory and expiratory breathing phases (end-inspiration, P01; end-expiration, P02), with a 50 μm isotropic reconstructed voxel size, using a filtered back-projection algorithm with a Ram-Lak filter.

hIPF fibroblasts = assay: Cell internalization by flow cytometry (intrinsic nintedanib fluorescence); assay type: cell-based, human; details: 24 h, 5 μM, flow cytometry λex 405 nm, BV421 channel, one representative result
Procedure: Cells were exposed for 24 h for treatment with compound 1 or nintedanib at 5 μM concentration; next, the percentage of positive cells of different treatment populations was determined and compared with the fluorescence intensity of untreated (UT) cells.
The integrin-mediated cell internalization of conjugate 1 and free nintedanib was determined by exploiting the intrinsic fluorescence of the nintedanib moiety (λex = 405 nm; λem = 480 nm). Intracellular fluorescence activity of 5 μM nintedanib was measured by flow cytometry. Fluorescence emission was analyzed using the BD Brilliant Violet 421 channel (450/50 nm bandpass filter) for the 405 nm laser.
Briefly, 150,000 cells were seeded in T25 flasks in complete culture medium and treated for 24 h with nintedanib or compound 1 at 5 μM concentration. After incubation, the cells were washed with PBS, gently detached using trypsin–EDTA solution, and resuspended in complete medium. After centrifugation (1500 rpm for 5 min), the cells were washed in PBS and resuspended in 300 μL of PBS for FACS analysis.

[3] = system: TGF-β1 in hIPF fibroblasts; assay: Western blot of intracellular TGF-β1 (44 kDa) expression; assay type: cell-based, human; details: 24 h, 5 μM, Western blot densitometry normalized to vinculin, vs untreated, three independent experiments
Text: as §1, §2

[4] = In vitro stability in mouse plasma (LC-MS/MS); assay type: in vitro ADME; details: 80% v/v mouse plasma in 100 mM PBS pH 7.4, 37 °C, plasma pre-incubated 10 min, 1% DMSO, LC-MS/MS (MRM, ESI+), vs t = 0, mean ± SD (n=3), read-out: % Compound at 6h mouse plasma
Procedure: (§3) 2. In vitro plasma stability of compounds 1 and 2
(§4) Stability of compounds 1 and 2 in mouse and human plasma was evaluated by incubating 5 μL of a 100 µM solution of each compound in DMSO with 400 μL of plasma and 95 μL of 100 mM phosphate buffered saline (PBS) pH 7.4 (final compound concentration: 1 µM; final DMSO concentration: 1%). Plasma samples were pre-incubated at 37 °C for 10 min before adding the compound. At different time points, an aliquot was withdrawn from each sample and deproteinized by addition of 100 μL of ice-cold acetonitrile containing the structurally related compound 13 as internal standard (Table S1). After a centrifugation step (14,000 g, 10 min, 4 °C), the supernatants were analyzed by LC-MS/MS. A multiple reaction monitoring (MRM) acquisition method in positive ion mode (ESI+) was set up to monitor the remaining percentages of test compound at different time points, if compared to time t = 0.
(§5) LC-MS/MS Analytical Method. A Thermo TSQ Quantum triple-quadrupole mass spectrometer (Thermo Italia, Milan, Italy) equipped with a heated electrospray (H-ESI) ion source and coupled to a Thermo Accela UHPLC system was employed for LC-MS/MS data acquisition and analysis. The LC separation occurred on a Waters XSelect HSS T3 column (3.5 μm, 2.1 × 100 mm; Waters, Milford, USA) at room temperature. […]

[5] = In vitro stability in human plasma (LC-MS/MS); assay type: in vitro ADME; details: 80% v/v human plasma in 100 mM PBS pH 7.4, 37 °C, plasma pre-incubated 10 min, 1% DMSO, LC-MS/MS (MRM, ESI+), vs t = 0, mean ± SD (n=3), read-out: % Compound at 6h human plasma
Procedure: as §3, §4, §5

human αvβ6 integrin = molecular target: T1, human αvβ6 integrin (Homo sapiens, UniProt P06756+P18564, DEL708-788); assay: Competitive solid-phase αvβ6 integrin binding assay to coated LAP; details: competitive solid-phase binding to coated LAP (0.4 μg/mL); soluble human αvβ6 0.25 μg/mL; compounds 10^-5–10^-10 M, 1 h room temperature; absorbance 450 nm; mean ± SD of three independent experiments in triplicate
T1 construct: purchased R&D Systems
Procedure: The ability of conjugate 1 to bind to the human, isolated αvβ6 integrin receptor was evaluated by a competitive solid-phase ligand-binding assay on purified αvβ6 integrin in the presence of increasing concentrations (10^–10–10^–5 M) of 1. To better evaluate the impact of the linker and nintedanib moieties on the binding capability of 1, the results (Table ) were compared to those obtained for free cyclopeptide 3 and previously reported cyclopeptide 11 (the deprotected version of prot-11, Scheme ). Binding curves are provided in Figure S3, Supporting Information.
The affinity of integrin ligands 1, 3, and 11 was determined by the solid-phase binding assay using soluble αvβ6 integrin and coated LAP, according to a previously reported protocol. Flat-bottom 96-well plates (Corning Costar, Segrate, Milan, Italy) were coated by passive adsorption with LAP (TGF-β; 0.4 μg/mL; R&D Systems) in carbonate buffer (15 mM Na2CO3 and 35 mM NaHCO3, pH 9.6; 100 μL/well) overnight at 4 °C. After three washes with PBS-T buffer (phosphate-buffered saline–Tween20, 137 mM NaCl, 2.7 mM KCl, 10 mM Na2HPO4, 2 mM KH2PO4, and 0.01% Tween20, pH 7.4; 200 μL/well), wells were blocked with TS-B buffer (Tris–saline/BSA buffer; 20 mM Tris–HCl, 150 mM NaCl, 1 mM CaCl2, 1 mM MgCl2, 1 mM MnCl2, pH 7.5, and 1% BSA; 150 μL/well) for 1 h at room temperature. After washing the assay plate three times with PBS-T (200 μL/well), soluble human αvβ6 integrin (0.25 μg/mL, R&D Systems) was incubated with compounds and tested at different concentrations (10^–5–10^–10 M), in the coated wells for 1 h at room temperature. The plate was washed three times with PBS-T buffer, and anti-αv primary antibody (1:500 dilution, 100 μL/well; mouse antihuman MAB1978, Merck Life Science, Milan, Italy) was added and incubated for 1 h at room temperature. […] The reaction was stopped with 1 M H2SO4 (50 μL/well), and the absorbance was measured at 450 nm with an EnSpire Multimode Plate Reader (PerkinElmer, Waltham, MA). […] Data analysis and IC50 affinity values were calculated using GraphPad Prism 10.4.1 (GraphPad Software, San Diego, CA). […]

[6] = molecular target: soluble human αvβ6 integrin (human) (UniProt P06756); assay: ELISA; competitive solid-phase binding assay: LAP (0.4 μg/mL) coated in carbonate buffer pH 9.6 overnight at 4 °C, blocked with TS-B buffer (20 mM Tris–HCl, 150 mM NaCl, 1 mM CaCl2, 1 mM MgCl2, 1 mM MnCl2, pH 7.5, 1% BSA); soluble human αvβ6 (0.25 μg/mL) incubated with compounds (10^-5–10^-10 M) in the coated wells 1 h at room temperature; bound integrin detected with anti-αv antibody and HRP secondary
[7] = 94 μmol/kg oral gavage daily, vs BLM group

Compound: COC(=O)c1ccc2c(c1)NC(=O)/C2=C(\Nc1ccc(N(C)C(=O)CN2CCN(C)CC2)cc1)c1ccccc1 [nintedanib]
ERK1/2 phosphorylation [1]: reduced
IC50 (human recombinant VEGFR): 7 nM
severe fibrotic lesions (Ashcroft score, histology) ([2]; 23 μmol/kg oral gavage daily): had no effects
lung aeration by longitudinal μCT (%GasExpiration, poorly aerated tissue) ([2]; 23 μmol/kg oral gavage daily, vs BLM group): tendency toward disease progression
severe fibrotic lesions (Ashcroft score, histology) ([2]; 94 μmol/kg oral gavage daily): clearly reduced severe fibrotic lesions
CT biomarkers adjusted to own basal value on day 14 [2, 7]: statistically significant improvement
lung aeration by longitudinal μCT (%GasExpiration, poorly aerated tissue) [2, 7]: significantly improved lung aeration
percentage of positive cells (internalization) (hIPF fibroblasts): about 94%
percentage of positive cells (internalization) (hIPF fibroblasts; listed as NINT): 93.8%
expression of intracellular form of TGF-β1 (44 kDa) [3]: reduced

Compound: CC(C)C[C@@H]1NC(=O)[C@H](CC(=O)O)NC(=O)CNC(=O)[C@H](CCCNC(=N)N)NC(=O)[C@H](CC(C)C)NC(=O)[C@@H]2C[C@@H](CN2C(=O)CCCCCNC(=O)CCc2ccc(OC3=C(/C=C/C4=[N+](CCC[N+](C)(C)C)c5ccc(S(=O)(=O)O)cc5C4(C)C)CCC/C3=C\C=C3\N(CCC[N+](C)(C)C)c4ccc(S(=O)(=O)O)cc4C3(C)C)cc2)NC1=O [compound 2]
remaining at 6 h [4]: 59 ± 3%
remaining at 6 h [5]: 51 ± 3%

IC50 (human αvβ6 integrin): 1.95 ± 0.16 nM
Compound: COC(=O)c1ccc2c(c1)NC(=O)/C2=C(\Nc1ccc(N(C)C(=O)CN2CCN(CCOCCOCCOCc3cn(CCCCN4C[C@@H]5C[C@H]4C(=O)N[C@@H](CC(C)C)C(=O)N[C@@H](CCCNC(=N)N)C(=O)NCC(=O)N[C@@H](CC(=O)O)C(=O)N[C@@H](CC(C)C)C(=O)N5)nn3)CC2)cc1)c1ccccc1 [compound 1]
remaining at 6 h [4]: 95 ± 4%
remaining at 6 h [5]: 96 ± 5%

IC50 [6]: 24.7 nM
Compound: c(phg-isoDGRk) (peptide)

IC50 (human αvβ6 integrin): 30.3 ± 7.6 nM
Compound: CC(C)C[C@@H]1NC(=O)[C@H](CC(=O)O)NC(=O)CNC(=O)[C@H](CCCNC(=N)N)NC(=O)[C@H](CC(C)C)NC(=O)[C@@H]2C[C@@H](CN2C(=O)CCCCCN=[N+]=[N-])NC1=O [compound 11]

IC50 (human αvβ6 integrin): 4.52 ± 0.68 nM
Compound: CC(C)C[C@@H]1NC(=O)[C@H](CC(=O)O)NC(=O)CNC(=O)[C@H](CCCNC(=N)N)NC(=O)[C@H](CC(C)C)NC(=O)[C@@H]2C[C@@H](CN2CCCCN=[N+]=[N-])NC1=O [compound 3] (cyclo(RGDL[X1]L))
